Here are results for 25 molecules from US6552073B1, “Compounds and methods of treating cell proliferative diseases” (Exonhit Therapeutics SA, priority 2002, dated 2003).

Entries after “also recorded” stand apart in the source; their conditions may differ.

In general, melting point refers to the temperature, or range, at which the solid turns liquid.

One data set has as its system NIH3T3. Briefly: Cytoskeleton analysis, actin staining. It is filed as cell-based, mouse. The method, then:
(§1) Since major rearrangements of cytoskeleton are observed in tumor cells and since the small GTPases are known to regulate these events, analysis of actin cytoskeleton was performed. Subconfluent cells seeded onto coverslips were treated with different concentration of compound (1, 10, 17.5, 25 and 50 μM) or vehicle for 24 h, before being fixed in 4% formaldehyde for 15 min., permeabilized in 0.2% Triton X100 for 5 minutes and incubated in PowerBlock (Biogenex) for 10 min. Actin filaments were stained with 0.5 μg/ml fluorescein isothiocyanate (FITC)-labelled phalloidin for 1 hour. Analysis was performed using an inverted fluorescent microscope.

Data set [1] deals with NIH3T3 cells transfected with RasV12. Nature of the data set: Colony formation assay in the presence of constitutively activated Ras (RasV12). To be noted: NIH3T3, neoR colonies. Also noted: key to Colony formation: −: no effect of the compound was observed; +: an effect of the compound was observed. It is filed as cell-based, mouse. Here is the method: c) Ras/Rac-dependant Signaling Pathway Analysis
The impact of the compounds on Ras and Rac signaling pathways was analysed with two reporter systems described by Imler (Nature 1988) and Lin (Science, 1995) respectively on one hand, and by a colony formation assay in the presence of constitutively activated Ras (RasV12) and Rac (RacV12) on the other hand. For this latter experiment, fifty percent confluent NIH3T3 cells in a 10 cm diameter petri dish were transfected with 0.5 μg pSV2-RasV12 or 0.5 μg pEXV RacV12 plasmids plus 100 ng of pSV2-neomycin plasmid using Lipofectamine-Plus reagent (Invitrogen) according to the manufacturer's instructions. Forty-eight hours later, cells were trypsinised, splitted to 1/3, and incubated in the presence of complete medium supplemented with 400 μg/ml geneticin (Invitrogen) and different doses of compound (1, 10, 17.5, 25 and 50 μM) until emerging resistant clones appear (2-3 weeks). The medium was renewed every 3 days. Colonies with a minimum of 50 cells were counted after staining with Fuschin 2%.

Another data set relates to MDA-MB-231 cells. Nature of the data set: Matrigel invasion assay (Boyden chamber). Type of data set: cell-based, human. The conditions noted are these: MDA-MB-231, Boyden chamber, matrigel. The method, then: d) Migration and Matrigel Invasion Assay
Chemoinvasion assay was performed in Boyden chamber as described by Albini et al (Cancer Res, 1987) with some modifications. Polycarbonate membranes with 8μm pores were coated with matrigel (125 μg/cm^2) at room temperature for 48 h. Two hours before experiments, the matrix was […] with serum-free medium containing 0.1% BSA.
One day after seeding, 10^6 MDA-MB-231 cells were treated overnight with different concentrations of compounds (1, 10, 17.5, 25 and 50 μM). Cells were collected with Versene (Invitrogen), counted with trypan blue exclusion, rinsed twice in serum-free medium containing 0.1% BSA and resuspended in serum-free medium containing 0.1% BSA plus the appropriate concentration of compound. 10^5 treated cells were placed in the upper chamber. Medium containing 10% of FBS plus the appropriate concentration of compound was placed in the lower chamber as a chemoattractant. The Boyden chamber was incubated 6 hours at 37° C. before the cells were fixed and stained with Diff-Quick (Dade-Berhing). Cells on the upper part of the filters were removed using a cotton swab. Cells on the underside of the filters were visualised and counted under light microscope. The migration assay was performed the same way, using non-coated filters.

A further data set deals with MDA231. Briefly: Cytoskeleton analysis, actin staining. Type of data set: cell-based, human. The method, then: as §1

Consider `O=c1cc(CO)occ1OCCCCCOc1cccc(Cl)c1` [EH10600, 5-[5-(3-Chlorophenyloxy)pentyloxy]-2-(hydroxymethyl)-4H-pyran-4-one], for which the melting point is 87 to 88 °C. Moreover, the “Cell architecture modification, actin staining NIH3T3, general observation” value with NIH3T3 is reported as “affected the general morphology; also recorded: cell destructuration”. In data set [1], the Colony formation result is “−”.

As to `C/C=C/c1oc(C(=O)O)cc(=O)c1OCCCCCOc1ccccc1CCC` [EH15301, (E)-2-(Propen-1-yl)-3-[5-(2-propylphenyloxy)pentyloxy]-4-oxo-4H-pyran-6-carboxvlic acid], the melting point lay in the range of 145 to 146 °C. Still for that read-out and setting: the value for `O=C(O)c1cc(=O)c(OCCCCOc2ccc(Cl)c(Cl)c2)co1` [EH20700, 5-[4-(3,4-Dichlorophenyloxy)butyloxy]-4-oxo-4H-pyran-2-carboxylic acid] was 182 to 183 °C; that for `CCOc1ccccc1OCCCCCOc1coc(C(=O)O)cc1=O` [EH4701, 5-[5-(2-Ethyloxyphenyloxy)pentyloxy]-4-oxo-4H-pyran-2-carboxylic acid] was 141 to 142 °C.

On to `C/C=C/c1oc(CO)cc(=O)c1OCCCCCOc1ccccc1CCC` [EH9301, (E)-6-(Hydroxymethyl)-2-(propen-1-yl)-3-[5-(2-propylphenyloxy)pentyloxy]-4H-pyran-4-one], for which the melting point lay within 67 to 68 °C. Moreover, in the data set on MDA-MB-231 cells, the Invasion entry is “No significant effect”. Besides, the Colony formation entry in data set [1] was “−”. On to `C/C=C/c1oc(C(=O)O)cc(=O)c1OCCCCCOc1ccc(Cl)c(Cl)c1` [EH10501, (E)-3-[5-(3,4-Dichlorophenyloxy)pentyloxy]-2-(propen-1-yl)-4-oxo-4H-pyran-6-carboxylic acid], for which the melting point was in the range of 118 to 119 °C.

With `C/C=C/c1oc(CO)cc(=O)c1OCCCCCOc1ccc(Cl)c(Cl)c1` [EH30101], the melting point fell in the range of 100 to 101 °C. The molecule `O=c1cc(COCc2ccccc2)occ1OCCCCCOc1ccc(Cl)c(Cl)c1` [EH7701, 2-(Benzyloxymethyl)-5-[5-(3,4-dichlorophenyloxy)pentyloxy]-4H-pyran-4-one] displayed a melting point of 82 to 83 °C. Besides, the Invasion result in the data set on MDA-MB-231 cells is given as “No significant effect”. Further, in the data set with MDA231, the “Cell architecture modification, actin staining MDA231, general observation” value was “cell spreading”.

`CCOc1ccccc1OCCCCCOc1coc(CO)cc1=O` [EH18601, 5-[5-(2-Ethyloxyphenyloxy)pentyloxy]-2-(hydroxymethyl)-4H-pyran-4-one] had a melting point of 75 to 76 °C. The Invasion entry with MDA-MB-231 cells was “No significant effect”.

`CCCc1c(OCCCCCCCOc2coc(CO)cc2=O)ccc(Cl)c1Cl` [EH17701, 5-[7-(3,4-Dichloro-2-propylphenyloxy)heptyloxy]-2-(hydroxymethyl)-4H-pyran-4-one] returned a melting point of 62 to 64 °C. For the same molecule, in the data set on MDA231, the “Cell architecture modification, actin staining MDA231, general observation” value was “cell spreading”. `O=c1cc(CO)occ1OCCCCOc1ccc(Cl)c(Cl)c1` [EH17700, 5-[4-(3,4-Dichlorophenyloxy)butyloxy]-2-(hydroxymethyl)-4H-pyran-4-one] came in with a melting point of 107 to 108 °C. Moreover, in data set [1], the Colony formation result was “−”.

In turn, `O=C(O)c1cc(=O)c(OCCCCCOc2ccc(Cl)cc2)co1` [EH17600, 5-[5-(4-Chlorophenyloxy)pentyloxy]-4-oxo-4H-pyran-2-carboxylic acid] came in with a melting point of 154 to 156 °C. Molecule `C/C=C/c1oc(C(=O)O)cc(=O)c1OCCCCCOc1cccc(Cl)c1` [EH18401, (E)-3-[5-(3-Chlorophenyloxy)pentyloxy]-2-(propen-1-yl)-4-oxo-4H-pyran-6-carboxylic acid] had a melting point of 116 to 117 °C. Same read-out and setting: the value for `CCCc1c(OCCCCCOc2coc(C(=O)O)cc2=O)ccc(Cl)c1Cl` [EH27900, 5-[5-(3,4-Dichloro-2-propylphenyloxy)pentyloxy]-4-oxo-4H-pyran-2-carboxylic acid] was 155 to 156 °C; that for `C/C=C/c1oc(CO)cc(=O)c1OCCCCCOc1ccc(Cl)cc1` [EH26101, (E)-3-[5-(4-Chlorophenyloxy)pentyloxy]-6-(hydroxymethyl)-2(propen-1-yl)-4H-pyran-4-one] was 84 to 85 °C; that for `C/C=C/c1oc(C(=O)O)cc(=O)c1OCCCCCOc1ccc(Cl)cc1` [EH17401, (E)-3-[-5-(4-Chlorophenyloxy)pentyloxy]-2-(propen-1-yl)-4-oxo-4H-pyran-6-carboxylic acid] was 136 to 137 °C. Same read-out and setting: the value for `O=C(O)c1cc(=O)c(OCCCCCOc2cccc(Cl)c2)co1` [EH15700, 5-[5-(3-Chlorophenyloxy)pentyloxy]-4-oxo-4H-pyran-2-carboxylic acid] was 160 to 161 °C; that for `CCCc1ccccc1OCCCCCOc1coc(C(=O)O)cc1=O` [EH26900, 5-[5-(2-Propylphenyloxy)pentyloxy]-4-oxo-4H-pyran-2-carboxylic acid] was 145 to 146 °C; that for `C/C=C/c1oc(C(=O)O)cc(=O)c1OCCCCCOc1ccc(Cl)c(Cl)c1CCC` [EH22501, (E)-3-[5-(3,4-Dichloro-2-propylphenyloxy)pentyloxy]-2-(propen-1-yl)-4-oxo-4H-pyran-6-carboxylic acid] was 161 to 162 °C. Same read-out and setting: the value for `C/C=C/c1oc(CO)cc(=O)c1OCCCCCOc1cccc(Cl)c1` [EH16201, (E)-3-[5-(3-Chlorophenyloxy)pentyloxy]-6-(hydroxymethyl)-2-(propen-1-yl)-4H-pyran-4-one] was 50 to 51 °C. `O=C(O)c1cc(=O)c(OCCCCCOc2ccc(Cl)c(Cl)c2)co1` [EH6600, 5-[5-(3,4-Dichlorophenyloxy)pentyloxy]-4-oxo-4H-pyran-2-carboxylic acid] showed a melting point of 159 to 161 °C. `CCCc1cc(Cl)c(Cl)cc1OCCCCCOc1coc(CO)cc1=O` [EH30701, 5-[5-(4,5-Dichloro-2-propylphenyloxy)pentyloxy]-2-(hydroxymethyl)-4H-pyran-4-one] had a melting point of 83 to 84 °C. The “Cell architecture modification, actin staining MDA231, general observation” value with MDA231 is listed as “cell spreading”. With `O=C(NCc1ccccc1)c1cc(=O)c(OCCCCCOc2ccc(Cl)cc2)co1` [EH28900, N-Benzyl-5-[5-(4-Chlorophenyloxy)pentyloxy]-4-oxo-4H-pyran-2-carboxamide], the melting point was in the range of 125 to 126 °C. Consider `CCCc1c(OCCCCCCOc2coc(CO)cc2=O)ccc(Cl)c1Cl` [EH16701, 5-[6-(3,4-Dichloro-2-propylphenyloxy)hexyloxy]-2-(hydroxymethyl)-4H-pyran-4-one], for which the melting point lay within 86 to 87 °C. In addition, in the data set on MDA-MB-231 cells, the Invasion result is given as “No significant effect”. The “Cell architecture modification, actin staining MDA231, general observation” value in the data set on MDA231 is given as “cell spreading”.

`O=c1cc(CO)occ1OCCCCCOc1ccc(Cl)c(Cl)c1` [EH5500, 5-[5-(3,4-Dichlorophenyloxy)pentyloxy]-2-(hydroxymethyl)-4H-pyran-4-one] returned a melting point of 97 to 99 °C. Also, the “Cell architecture modification, actin staining NIH3T3, general observation” value in the data set on NIH3T3 is “affected the general morphology; also recorded: cell destructuration”. Further, the Colony formation result in data set [1] is “−”.
